Measurements: patent US20100239501A1, “GENE SENSITIVE TO BONE/JOINT DISEASE AND USE THEREOF” (RIKEN, priority 2007, published 2010)

Columns and labels:
Assay type in all cases: cell-based
[1] = test system: Normal human knee articular cartilage cells (NHAC-kn); test: Inflammatory cytokine gene expression induction by LPA in human articular cartilage cells; conditions: 10 μM LPA, n=4
Protocol: EDG2 is a GPCR having lysophosphatidic acid (LPA) as a ligand thereof. For LPA, four receptors, including EDG2, have been reported (EDG2, EDG4, EDG7 and GPR23). To analyze the tissue distributions of these four LPA receptors, an expression quantitation analysis by quantitative real-time PCR in various human tissues was performed. On 500 ng of total RNA of each of various human tissues (Human Total RNA Master Panel, Clontech), reverse transcription was performed using Multiscribe reverse transcriptase (Applied biosystems) and a random hexamer, whereby a cDNA was obtained. Quantitation of the LPA receptor genes was performed using QuantiTect STBR Green PCR (Qiagen) on the ABI PRISM 7700 sequence detection system (Applied biosystems) as directed in the documentation attached. The number of copies of each gene was calculated using a working curve. […]
The inflammatory cytokine expression induction reaction of LPA, which is a ligand of EDG2, in human articular cartilage cells was analyzed. […] Twelve hours after the medium replacement, the cells were stimulated with 10 μM LPA; 0, 2, 4, 8, 12 and 24 hours later, total RNA was extracted using ISOGEN (Nippon Gene), and the amounts expressed of TNFA and IL1B, which are inflammatory cytokine genes, were quantified by a method in accordance with Example 10. […]

[2] = test system: rabbit synovial cell line (HIG-82); test: Inflammatory cytokine and MMP gene expression induction by LPA in rabbit synovial cell line
Protocol: EDG2 is a GPCR having lysophosphatidic acid (LPA) as a ligand thereof. For LPA, four receptors, including EDG2, have been reported (EDG2, EDG4, EDG7 and GPR23). To analyze the tissue distributions of these four LPA receptors, an expression quantitation analysis by quantitative real-time PCR in various human tissues was performed. On 500 ng of total RNA of each of various human tissues (Human Total RNA Master Panel, Clontech), reverse transcription was performed using Multiscribe reverse transcriptase (Applied biosystems) and a random hexamer, whereby a cDNA was obtained. Quantitation of the LPA receptor genes was performed using QuantiTect STBR Green PCR (Qiagen) on the ABI PRISM 7700 sequence detection system (Applied biosystems) as directed in the documentation attached. The number of copies of each gene was calculated using a working curve. The amount of each gene was standardized by being divided by the number of copies of the G3PDH gene. A Toyobo product was used as the primer for the G3PDH gene. […] In these organs, the amount of the EDG2 gene expressed was about 20 to 100 times as high as other LPA receptor genes; this gene is a dominant LPA receptor (FIG. 2). The EDG2 gene was also found to be expressed at moderate levels in the adrenal, cerebellum, lung, placenta, prostate, testis, thyroid, trachea, and uterus (FIG. 2). In these tissues, EDG2 was not always a dominant LPA receptor.
The inflammatory cytokine expression induction reaction of LPA in a rabbit synovial cell line was analyzed. The method used is described below. A rabbit synovial cell line (HIG-82) was purchased from ATCC. The HIG-82 was cultured using Ham's F-12 medium (Invitrogen) containing 10% fetal bovine serum (FBS) and antibiotics (100 U/ml penicillin G and 100 μg/ml streptomycin). The HIG-82 was seeded to a 24-well plate at a ratio of 1×10^5 cells/well, and cultured until they became confluent. Twelve hours before performing LPA stimulation, the medium was replaced with Ham's F-12 medium containing 0.1% fatty acid free bovine serum albumin (Sigma). In the time-related change analysis, 12 hours after the medium replacement, the cells were stimulated with 10 μM LPA; 0, 2, 4, 8, 12 and 24 hours later, total RNA was extracted using ISOGEN (Nippon Gene), and the amounts expressed of the TNFA and IL1B genes, which are inflammatory cytokine genes, and of the MMP1, MMP3 and MMP13 genes, which are MMP genes, were quantified by a method in accordance with Example 10 (n=4). In the dose dependency test, 12 hours after the medium replacement, the cells were stimulated with 0, 0.1, 1 and 10 μM LPA; 2 hours later, total RNA was extracted using ISOGEN (Nippon Gene), and the amounts expressed of the TNFA and IL1B genes, which are inflammatory cytokine genes, were quantified by the same method as with the time-related change test (n=4). As a result of the time-related change test of inflammatory cytokine genes with LPA stimulation, the amounts expressed of the TNFA and IL1B genes rose transiently, with peaks reached 2 hours later (FIGS. 9a and b). The amounts expressed of the MMP1, MMP3 and MMP13 genes, which are MMP genes, rose transiently, with peaks reached 4, 4 and 8 hours later, respectively. As a result of the dose dependency test, it was shown that LPA raised the expression of inflammatory cytokine genes dose-dependently. The amount expressed of the IL1B gene nearly reached a plateau at 1 μM, whereas the amount expressed of the TNFA gene rose dose-dependently up to 10 μM. The results above are well similar to the results for HFLS-OA shown in Example 17, showing that in HIG-82 cells as well, the expression of inflammatory cytokine genes is induced with LPA stimulation, and the expression of MMPs is induced paracrinely.

EDG2 = EDG2 (Homo sapiens, UniProt Q92633); test: Intracellular Ca2+ concentration (FLIPR tetra) in McA-RH7777 cells stably expressing EDG2; set-up: Dainippon Pharmaceutical Co., Ltd. (cells); host or cells: McA-RH7777; conditions: 0.03 to 10 μM LPA
Chain of EDG2 (Q92633 whole entry): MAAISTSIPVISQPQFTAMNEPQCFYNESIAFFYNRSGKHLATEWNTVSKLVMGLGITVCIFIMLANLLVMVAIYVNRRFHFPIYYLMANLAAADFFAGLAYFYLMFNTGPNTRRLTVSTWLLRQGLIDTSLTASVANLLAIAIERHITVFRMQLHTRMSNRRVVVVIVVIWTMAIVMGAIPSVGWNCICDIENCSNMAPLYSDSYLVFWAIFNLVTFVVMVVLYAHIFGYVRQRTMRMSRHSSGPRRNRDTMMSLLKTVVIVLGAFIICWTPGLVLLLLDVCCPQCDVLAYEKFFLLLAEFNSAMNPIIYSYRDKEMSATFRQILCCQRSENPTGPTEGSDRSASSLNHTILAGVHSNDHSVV
Protocol: A forcible expression vector comprising an ORF sequence of human EDG2 [hEDG2-pcDNA3.1(+)] was purchased from UMR cDNA Resource Center. This plasmid was introduced into McA-RH7777 (Dainippon Pharmaceutical Co., Ltd.) using Lipofectamine LTX (Invitrogen), and the cells were cultured in a medium containing Geneticin for 14 to 20 days to acquire cells that stably express EDG2.
Next, an evaluation was made using FLIPR tetra (Molecular Devices) to confirm that stimulation with LPA raised intracellular Ca concentrations via the EDG2 expressed. That is, these cells were seeded to a 384-well plate, 0.03 to 10 μM LPA (Sigma) was added to each well, and it was confirmed that rises in intracellular Ca^2+ concentration occurred. LPA dose-dependently.

CCCCCCCC/C=C\CCCCCCCC(=O)OC[C@@H](O)COP(=O)(O)O [LPA, 1-Oleoyl-sn-Glycero-3-Phosphate]
IL1B gene expression ([1]; 0-24 hours): no expression raising reaction was observed
rise in amount expressed of the TNFA gene ([1]; transiently, 2 hours after addition): about 2 folds
rise of expression of inflammatory cytokine genes (TNFA, IL1B) ([2]; 0, 0.1, 1 and 10 μM LPA, 2 hours, n=4): dose-dependently
time of peak of IL1B gene expression ([2]; 10 μM LPA, transient rise, n=4): 2 h
time of peak of MMP1 gene expression ([2]; 10 μM LPA, transient rise, n=4): 4 h
time of peak of MMP3 gene expression ([2]; 10 μM LPA, transient rise, n=4): 4 h
time of peak of MMP13 gene expression ([2]; 10 μM LPA, transient rise, n=4): 8 h
time of peak of TNFA gene expression ([2]; 10 μM LPA, transient rise, n=4): 2 h
LPA concentration at which IL1B gene expression nearly reached a plateau ([2]; dose dependency test, 2 hours): 1 µM
LPA concentration up to which TNFA gene expression rose dose-dependently ([2]; dose dependency test, 2 hours): up to 10 μM
rises in intracellular Ca2+ concentration (EDG2): dose-dependently
